Reference: publication PMC9318694 (Molecules, 2022)
Read-outs that look alike come from different tables or passages of the source.

Assays:
D2R [1] = target: T1, D2R (Homo sapiens, UniProt P14416); assay: HTRF competitive binding screening of virtual hits at 10 µM (normalized decrease in fluorescence); settings: for Normalized Decrease in Fluorescence ± SD: Table 3, 10 µM, n = 4, normalized to the control; for NDF (normalized decreased fluorescence) ± SD: Table S9, all selected virtual hits, n = 4, 10 µM
T1 sequence (P14416 whole entry): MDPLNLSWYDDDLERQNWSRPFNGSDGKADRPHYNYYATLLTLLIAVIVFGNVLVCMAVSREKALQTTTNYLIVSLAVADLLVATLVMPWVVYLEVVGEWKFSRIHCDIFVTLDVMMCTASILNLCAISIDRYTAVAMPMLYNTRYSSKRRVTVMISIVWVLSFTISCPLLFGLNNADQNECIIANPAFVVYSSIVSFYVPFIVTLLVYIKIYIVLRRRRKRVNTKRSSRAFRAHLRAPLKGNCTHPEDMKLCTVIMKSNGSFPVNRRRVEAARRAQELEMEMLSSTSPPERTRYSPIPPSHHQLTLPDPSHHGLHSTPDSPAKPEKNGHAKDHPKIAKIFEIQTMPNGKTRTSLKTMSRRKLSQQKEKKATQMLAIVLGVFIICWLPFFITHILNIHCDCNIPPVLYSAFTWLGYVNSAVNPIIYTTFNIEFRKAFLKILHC

D2R [2] = target: T1, D2R; settings: cited from earlier work
D2R [3] = target: T1, D2R; assay: HTRF KI determination of the selected ligands; type: binding; settings: for Fold Difference in comparison to the determined KI of dopamine / Ki: Table 4; for Ki: n = 6
Method: The selected compounds were investigated in vitro to determine their binding affinities (KI values) at D2R.
All the HTRF assays were performed using a Tecan Spark plate reader. The respective settings were specifically modified and optimized for the determination of D2R ligand-binding affinities. […] Fluorophores were excited at 320 nm. A Dichroic 510 mirror was used, while lag and integration times of 100 and 400 µs were applied, respectively. Flashes were set to 75. Electronic gain was automatically optimized, while the z-position was optimized based on the well with the highest expected signal. […] The first plate was used to determine the gain and the z-position. Subsequently, the determined values were set manually for the second plate to enable direct comparison between the different plates.
The cells were stored in liquid nitrogen until further use. […] Bromocriptine mesylate (50 mg; CAYM14598-50) was acquired from VWR. The assay was conducted according to the standard operation protocol (SOP) available from PerkinElmer/cisbio. The 96-well plates were incubated at room temperature for 2 h. The 96-well plates were read on a Tecan Spark plate reader (the settings are shown in Section 4.5). The respective concentrations of the dilution series were performed in triplicates. In total, KD determination was performed three times.
The materials described in 4.6 were also used during KI determination of the ligands selected after screening. […] KI was determined following the SOP available at PerkinElmer/cisbio. The 96-well plates were incubated at room temperature in the dark for 2 h. The 96-well plates were read on a Tecan Spark plate reader (the settings are shown in Section 4.5). In total, KI determination was performed twice.

[4] = Table S2, data set of inactives, radio-ligand binding (RLB) assays, ref ChEMBL, [71]-[92], read-out: KI

Normalized Decrease in Fluorescence ± SD (D2R [1]) | NDF (normalized decreased fluorescence) ± SD (D2R [1]) | Molecule | Ki (D2R [2]; [4]) [µM] | other results
9.44 ± 5.97 | – | CN1CCc2cccc3c2[C@H]1Cc1ccc(O)c(O)c1-3 [Compound 1, Apomorphine] | – | –
– | 0.84 ± 0.23 | CC/N=C1/SC(CC(=O)Nc2ccccc2C(F)(F)F)C(=O)N1CC (stereo not shown) [Compound 11] | – | –
– | 1.05 ± 0.50 | CC1CC(C)CN(CCC(=O)Nc2ccc(F)c(F)c2)C1 (stereo not shown) [Compound 12] | – | –
40.40 ± 1.39 | – | CN1CCN(C2Cc3ccc(O)cc3Sc3ccc(Cl)cc32)CC1 (stereo not shown) [Compound 14] | – | activity (KI range in words) (D2R [3]): nanomolar; Fold Difference in comparison to the determined KI of dopamine (D2R [3]): 2700; Ki (D2R [3]): 0.004 µM
3.99 ± 2.58 | 3.99 ± 2.58 | NS(=O)(=O)c1ccc(CCNCc2ccc(-c3cc(Cl)ccc3Cl)o2)cc1 [Compound 15] | – | activity (KI range in words) (D2R [3]): micromolar; Fold Difference in comparison to the determined KI of dopamine (D2R [3]): 2.6; Ki (D2R [3]): 4.31 µM
15.74 ± 18.15 | 15.74 ± 18.15 | CCN(CCC(=O)Nc1cccc(OC)c1)Cc1ccccc1 [Compound 16] | – | Fold Difference in comparison to the determined KI of dopamine (D2R [3]): 1.1; Ki (D2R [3]): 10 µM
8.18 ± 3.62 | 8.18 ± 3.62 | O=C(CCN1CCN(c2ccccc2F)CC1)Nc1cccc(F)c1 [Compound 17] | – | activity (KI range in words) (D2R [3]): micromolar; Fold Difference in comparison to the determined KI of dopamine (D2R [3]): 9.0; Ki (D2R [3]): 1.24 µM
10.85 ± 4.93 | 10.85 ± 4.93 | O[C@H](CNCCNc1ccc(C(F)(F)F)cn1)CSc1ccc(F)cc1 [Compound 18] | – | activity (KI range in words) (D2R [3]): micromolar; Fold Difference in comparison to the determined KI of dopamine (D2R [3]): 4.2; Ki (D2R [3]): 2.63 µM
22.08 ± 6.62 | 22.08 ± 6.62 | NC(=O)c1ccccc1OCCCN1CCN(c2ccccc2)CC1 [Compound 19] | – | activity (KI range in words) (D2R [3]): submicromolar; Fold Difference in comparison to the determined KI of dopamine (D2R [3]): 34.7; Ki (D2R [3]): 0.32 µM
38.69 ± 2.56 | – | O=C(CCCN1CC=C(n2c(=O)[nH]c3ccccc32)CC1)c1ccc(F)cc1 [Droperidol, droperidol] | – | –
9.21 ± 3.80 | – | c1cnc(N2CCN(Cc3ccc4c(c3)OCO4)CC2)nc1 [Piribedil, piribedil] | – | –
– | – | COc1cccc(CCc2ccccc2OCCCCN2CCN(c3ncccn3)CC2)c1 [SC117, 2-[4-[4-[2-[2-(3-methoxyphenyl)ethyl]phenoxy]butyl]piperazin-1-yl]pyrimidine] | 854 | –
– | – | COc1cccc(CCc2ccccc2OCCCCCN2CCN(c3ncccn3)CC2)c1 [SC118, 2-[4-[5-[2-[2-(3-methoxyphenyl)ethyl]phenoxy]pentyl]piperazin-1-yl]pyrimidine] | > 1000 | –
– | – | COc1cccc(CCc2ccccc2OCCCCCN2CCN(c3ccc(F)cc3)CC2)c1 [SC119, 1-(4-fluorophenyl)-4-[5-[2-[2-(3-methoxyphenyl)ethyl]phenoxy]pentyl]piperazine] | 847 | –
– | – | COc1cccc(CCc2ccccc2OCCN2CCN(c3ccccc3OC)CC2)c1 [SC120, 1-(2-methoxyphenyl)-4-[2-[2-[2-(3-methoxyphenyl)ethyl]phenoxy]ethyl]piperazine] | 427 | –
– | – | COc1cccc(CCc2ccccc2OCCN2CCN(c3cccc(Cl)c3)CC2)c1 [SC121, 1-(3-chlorophenyl)-4-[2-[2-[2-(3-methoxyphenyl)ethyl]phenoxy]ethyl]piperazine] | > 1000 | –
– | – | COc1cccc(CCc2ccccc2OCCCCN2CCN(c3ccccc3OC)CC2)c1 [SC122, 1-(2-methoxyphenyl)-4-[4-[2-[2-(3-methoxyphenyl)ethyl]phenoxy]butyl]piperazine] | 67 | –
– | – | COc1cccc(CCc2ccccc2OCCCN2CCN(C)CC2)c1 [SC123, 1-[3-[2-[2-(3-methoxyphenyl)ethyl]phenoxy]propyl]-4-methylpiperazine] | 565 | –
– | – | COc1cccc(CCc2ccccc2OCCCCCN2CCc3ccccc3C2)c1 [SC124, 2-[5-[2-[2-(3-methoxyphenyl)ethyl]phenoxy]pentyl]-3,4-dihydro-1H-isoquinoline] | > 1000 | –
– | – | COc1cccc(CCc2ccccc2OCCCCCN2CCc3cc(OC)c(OC)cc3C2)c1 [SC125, 6,7-dimethoxy-2-[5-[2-[2-(3-methoxyphenyl)ethyl]phenoxy]pentyl]-3,4-dihydro-1H-isoquinoline] | > 1000 | –
– | – | COc1cccc(CCc2ccccc2OCCN2CCc3ccccc3C2)c1 [SC126, 2-[2-[2-[2-(3-methoxyphenyl)ethyl]phenoxy]ethyl]-3,4-dihydro-1H-isoquinoline] | – | Ki (D2R [2]; read-out: KI): > 1000 µM
– | – | c1ccc(CCC2CN(Cc3nc4ccccc4[nH]3)CCO2)cc1 (stereo not shown) [SC127, 4-(1H-benzimidazol-2-ylmethyl)-2-(2-phenylethyl)morpholine] | > 100 | –
30.65 ± 6.79 | – | CCN1CCC[C@H]1CNC(=O)c1cc(S(N)(=O)=O)ccc1OC [Sulpiride, (S)-(−)-sulpiride] | – | –
– | 1.02 ± 0.36 | SC144 | – | –

Molecule | Normalized Decrease in Fluorescence ± SD (D2R [1]) | NDF (normalized decreased fluorescence) ± SD (D2R [1]) | Ki (D2R [2]; [4]) [µM] | other results
CC(C)C[C@H]1C(=O)N2CCC[C@H]2[C@]2(O)O[C@](NC(=O)[C@@H]3C=C4c5cccc6[nH]c(Br)c(c56)C[C@H]4N(C)C3)(C(C)C)C(=O)N12 [Compound 2, Bromocriptine] | 39.10 ± 1.31 | – | – | Ki (D2R [2]): 0.0009 µM
C=CC1CN2CCC1CC2C(O)c1ccnc2ccc(O)cc12 (stereo not shown) [Compound 10] | – | 1.13 ± 0.37 | – | –
